Measurements from patent publication US20250092052A1, “HETEROARYL DERIVATIVE COMPOUNDS, AND USES THEREOF” (VORONOI INC., priority 2023, published 2025).

Molecular target: Myt1-KD (Homo sapiens (Human), UniProt Q99640)
Test: Thermal Shift Assay, compound binding to Myt1-KD
Settings: 2 μM protein, 100 μM compound, Tm of compound minus Tm of DMSO
Method: The degree of compound binding to Myt1-KD was tested using a Thermal Shift Assay. Each protein was diluted to a concentration of 2 μM in 50 mM Tris (pH 7.5) with 100 μM of the compound. SYPRO™ Orange dye was added to the solution, and the plate was transferred to a QuantStudio3 Real-Time PCR System (Applied Biosystems by Thermo Fisher Scientific). […] The degree of protein melting in the presence of the compound compared to DMSO was calculated according to the following Equation 1. ΔTm=Tm (Temperature of Example compound)−Tm (Temperature of DMSO) [Equation 1]

Chain of Myt1-KD (Q99640 110-359): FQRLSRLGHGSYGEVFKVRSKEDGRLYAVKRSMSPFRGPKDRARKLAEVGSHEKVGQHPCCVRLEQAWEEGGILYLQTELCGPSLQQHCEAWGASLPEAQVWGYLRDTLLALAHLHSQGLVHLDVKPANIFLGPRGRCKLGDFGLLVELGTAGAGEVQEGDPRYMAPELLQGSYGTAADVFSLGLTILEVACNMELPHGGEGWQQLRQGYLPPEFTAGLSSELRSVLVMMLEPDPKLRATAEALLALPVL

SMILES	ΔTm at 100 µM [°C]	ΔTm (° C.)
Cc1ccc(O)c(C)c1-n1c(N)c(C(=O)c2cc3ccccc3[nH]2)c2nccnc21 (atropisomer, axis not shown) [Example 2, (R)-(6-amino-5-(3-hydroxy-2,6-dimethylphenyl)-5H-pyrrolo[2,3-b]pyrazin-7-yl)(1H-indol-2-yl)methanone]	≤ 5	
Cc1ccc(O)c(C)c1-n1c(N)c(C(=O)c2nc3ccccc3[nH]2)c2cccnc21 (atropisomer, axis not shown) [Example 4, (R)-(2-amino-1-(3-hydroxy-2,6-dimethylphenyl)-1H-pyrrolo[2,3-b]pyridin-3-yl)(1H-benzo[d]imidazol-2-yl)methanone]	≤ 5	
Cc1ccc(O)c(C)c1-n1c(N)c(C(=O)c2cc3sccc3[nH]2)c2nccnc21 (atropisomer, axis not shown) [Example 6, (R)-(6-amino-5-(3-hydroxy-2,6-dimethylphenyl)-5H-pyrrolo[2,3-b]pyrazin-7-yl)(4H-thieno[3,2-b]pyrrol-5-yl)methanone]		B (5 °C ≥ ΔTm (° C.))
Cc1ccc(O)c(C)c1-n1c(N)c(C(=O)c2cc3occc3[nH]2)c2nccnc21 (atropisomer, axis not shown) [Example 8, (R)-(6-amino-5-(3-hydroxy-2,6-dimethylphenyl)-5H-pyrrolo[2,3-b]pyrazin-7-yl)(4H-furo[3,2-b]pyrrol-5-yl)methanone]		B (5 °C ≥ ΔTm (° C.))
Cc1ccc(O)c(C)c1-n1c(N)c(C(=O)c2cc3ccccc3[nH]2)c2nc(C)c(C)nc21 (atropisomer, axis not shown) [Example 10, (R)-(6-amino-5-(3-hydroxy-2,6-dimethylphenyl)-2,3-dimethyl-5H-pyrrolo[2,3-b]pyrazin-7-yl)(1H-indol-2-yl)methanone]		B (5 °C ≥ ΔTm (° C.))
Cc1cc2c(C(=O)c3nc4ccccc4[nH]3)c(N)n(-c3c(C)ccc(O)c3C)c2nc1C (atropisomer, axis not shown) [Example 11, (S)-(2-amino-1-(3-hydroxy-2,6-dimethylphenyl)-5,6-dimethyl-1H-pyrrolo[2,3-b]pyridin-3-yl)(1H-benzo[d]imidazol-2-yl)methanone]	≥ 5	
Cc1cc2c(C(=O)c3nc4ccccc4[nH]3)c(N)n(-c3c(C)ccc(O)c3C)c2nc1C (atropisomer, axis not shown) [Example 12, (R)-(2-amino-1-(3-hydroxy-2,6-dimethylphenyl)-5,6-dimethyl-1H-pyrrolo[2,3-b]pyridin-3-yl)(1H-benzo[d]imidazol-2-yl)methanone]		B (5 °C ≥ ΔTm (° C.))
Cc1ccc(O)c(C)c1-n1c(N)c(C(=O)c2cc3cnc(N4CCOCC4)cc3[nH]2)c2nc(C)c(C)nc21 (atropisomer, axis not shown) [Example 16, (R)-(6-amino-5-(3-hydroxy-2,6-dimethylphenyl)-2,3-dimethyl-5H-pyrrolo[2,3-b]pyrazin-7-yl)(6-morpholino-1H-pyrrolo[3,2-c]pyridin-2-yl)methanone]		B (5 °C ≥ ΔTm (° C.))
Cc1ccc(O)c(C)c1-n1c(N)c(C(=O)c2cc3occc3[nH]2)c2nc(C)c(C)nc21 (atropisomer, axis not shown) [Example 17, (S)-(6-amino-5-(3-hydroxy-2,6-dimethylphenyl)-2,3-dimethyl-5H-pyrrolo[2,3-b]pyrazin-7-yl)(4H-furo[3,2-b]pyrrol-5-yl)methanone]	≤ 5	
Cc1ccc(O)c(C)c1-n1c(N)c(C(=O)c2cc3cc(CN4CCOCC4)ccc3[nH]2)c2nccnc21 (atropisomer, axis not shown) [Example 20, (R)-(6-amino-5-(3-hydroxy-2,6-dimethylphenyl)-5H-pyrrolo[2,3-b]pyrazin-7-yl)(5-(morpholinomethyl)-1H-indol-2-yl)methanone]		B (5 °C ≥ ΔTm (° C.))
Cc1ccc(O)c(C)c1-n1c(N)c(C(=O)c2cc3cc(N4CCN(C)CC4)ccc3[nH]2)c2nccnc21 (atropisomer, axis not shown) [Example 21, (S)-(6-amino-5-(3-hydroxy-2,6-dimethylphenyl)-5H-pyrrolo[2,3-b]pyrazin-7-yl)(5-(4-methylpiperazin-1-yl)-1H-indol-2-yl)methanone]	≤ 5	
